The values that follow come from patent US9643974B2, “Amino-substituted imidazopyridazines” (Bayer Intellectual Property GmbH, priority 2011, dated 2017).

Where a name gives a salt, the structure may show the parent alone.

For one assay, the target named is T1, human full-lengt MKNK1 (Homo sapiens, UniProt Q9BUB5, T385D).
T1 construct: purchased Carna Biosciences 02-145; host or cells: insect cells (baculovirus expression system)
Kind of assay: MKNK1 kinase assay (MKNK1 TR-FRET assay). It counts as biochemical. To be noted: ATP final conc. 10 μM, 15 min preincubation, 45 min reaction at 22° C. The source says:
MKNK1-inhibitory activity of compounds of the present invention was quantified employing the MKNK1 TR-FRET assay as described in the following paragraphs.
A recombinant fusion protein of Glutathione-S-Transferase (GST, N-terminally) and human full-lengt MKNK1 (amino acids 1-424 and T344D of accession number BAA 19885.1), expressed in insect cells using baculovirus expression system and purified via glutathione sepharose affinity chromatography, was purchased from Carna Biosciences (product no 02-145) and used as enzyme. As substrate for the kinase reaction the biotinylated peptide biotin-Ahx-IKKRKLTRRKSLKG (C-terminus in amide form) was used which can be purchased e.g. form the company Biosyntan (Berlin-Buch, Germany).
(§1) For the assay 50 nL of a 100 fold concentrated solution of the test compound in DMSO was pipetted into a black low volume 384 well microtiter plate (Greiner Bio-One, Frickenhausen, Germany), 2 μL of a solution of MKNK1 in aqueous assay buffer [50 mM HEPES pH 7.5, 5 mM magnesium chloride, 1.0 mM dithiothreitol, 0.005% (v/v) Nonidet-P40 (Sigma)] was added and the mixture was incubated for 15 min at 22° C. to allow pre-binding of the test compounds to the enzyme before the start of the kinase reaction. Then the kinase reaction was started by the addition of 3 μL of a solution of adenosine-tri-phosphate (ATP, 16.7 μM=>final conc. in the 5 μL assay volume is 10 μM) and substrate (0.1 μM=>final conc. in the 5 μL assay volume is 0.06 μM) in assay buffer and the resulting mixture was incubated for a reaction time of 45 min at 22° C. The concentration of MKNK1 was adjusted depending of the activity of the enzyme lot and was chosen appropriate to have the assay in the linear range, typical concentrations were in the range of 0.05 μg/ml. The reaction was stopped by the addition of 5 μL of a solution of TR-FRET detection reagents (5 nM streptavidine-XL665 [Cisbio Bioassays, Codolet, France] and 1 nM anti-ribosomal protein S6 (pSer236)-antibody from Invitrogen [#44921G] and 1 nM LANCE EU-W1024 labeled ProteinG [Perkin-Elmer, product no. AD0071]) in an aqueous EDTA-solution (100 mM EDTA, 0.1% (w/v) bovine serum albumin in 50 mM HEPES pH 7.5).
The resulting mixture was incubated for 1 h at 22° C. to allow the formation of complex between the phosphorylated biotinylated peptide and the detection reagents. Subsequently the amount of phosphorylated substrate was evaluated by measurement of the resonance energy transfer from the Eu-chelate to the streptavidine-XL. Therefore, the fluorescence emissions at 620 nm and 665 nm after excitation at 350 nm were measured in a TR-FRET reader, e.g. a Rubystar (BMG Labtechnologies, Offenburg, Germany) or a Viewlux (Perkin-Elmer). The ratio of the emissions at 665 nm and at […] was taken as the measure for the amount of phosphorylated substrate. The data were normalised (enzyme reaction without inhibitor=0% inhibition, all other assay components but no enzyme=100% inhibition). Usually the test compounds were tested on the same microtiterplate in 11 different concentrations in the range of 20 μM to 0.1 nM (20 μM, 5.9 μM, 1.7 μM, 0.51 μM, 0.15 μM, 44 nM, 13 nM, 3.8 nM, 1.1 nM, 0.33 nM and 0.1 nM, the dilution series prepared separately before the assay on the level of the 100 fold concentrated solutions in DMSO by serial 1:3.4 dilutions) in duplicate values for each concentration and […] were calculated by a 4 parameter fit.

The next assay concerns the target T2, human full-length MKNK1 (Homo sapiens, UniProt Q9BUB5, T385D).
T2 construct: purchased Carna Biosciences 02-145; host or cells: insect cells (baculovirus expression system)
The assay can be described thus: MKNK1 kinase high ATP assay (TR-FRET-based). The class given is biochemical. As to conditions: ATP final conc. 2 mM, 15 min preincubation, 30 min reaction at 22° C. The method, then:
MKNK1 Kinase High ATP Assay
MKNK1-inhibitory activity at high ATP of compounds of the present invention after their preincubation with MKNK1 was quantified employing the TR-FRET-based MKNK1 high ATP assay as described in the following paragraphs.
A recombinant fusion protein of Glutathione-S-Transferase (GST, N-terminally) and human full-length MKNK1 (amino acids 1-424 and T344D of accession number BAA 19885.1), expressed in insect cells using baculovirus expression system and purified via glutathione sepharose affinity chromatography, was purchased from Carna Biosciences (product no 02-145) and used as enzyme. As substrate for the kinase reaction the biotinylated peptide biotin-Ahx-IKKRKLTRRKSLKG (C-terminus in amide form) was used, which can be purchased e.g. from the company Biosyntan (Berlin-Buch, Germany).
as §1, with “3.3 mM=>final” for “16.7 μM=>final”, “2 mM)” for “10 μM)”, “30” for “45”, “0.003 μg/mL.” for “0.05 μg/ml.”
The resulting mixture was incubated for 1 h at 22° C. to allow the formation of complex between the phosphorylated biotinylated peptide and the detection reagents. Subsequently the amount of phosphorylated substrate was evaluated by measurement of the resonance energy transfer from the Eu-chelate to the streptavidine-XL. Therefore, the fluorescence emissions at 620 nm and 665 nm after excitation at 350 nm were measured in a TR-FRET reader, e.g. a Rubystar (BMG Labtechnologies, Offenburg, Germany) or a Viewlux (Perkin-Elmer). The ratio of the emissions at 665 nm and at […] was taken as the measure for the amount of phosphorylated substrate. The data were normalised (enzyme reaction without inhibitor=0% inhibition, all other assay components but no enzyme=100% inhibition).

T2 sequence (Q9BUB5 1-424 isoform Q9BUB5-2 T344D): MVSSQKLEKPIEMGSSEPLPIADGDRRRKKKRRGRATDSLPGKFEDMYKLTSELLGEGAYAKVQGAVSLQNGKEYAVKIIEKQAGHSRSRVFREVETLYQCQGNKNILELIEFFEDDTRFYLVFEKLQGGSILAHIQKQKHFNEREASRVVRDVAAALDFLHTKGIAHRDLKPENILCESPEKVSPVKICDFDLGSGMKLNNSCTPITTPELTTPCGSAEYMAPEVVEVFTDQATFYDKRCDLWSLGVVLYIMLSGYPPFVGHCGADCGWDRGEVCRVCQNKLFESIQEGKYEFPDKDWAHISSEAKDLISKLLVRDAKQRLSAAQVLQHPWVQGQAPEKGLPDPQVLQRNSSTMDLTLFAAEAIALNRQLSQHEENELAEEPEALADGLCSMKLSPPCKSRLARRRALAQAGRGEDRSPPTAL
T1 sequence (Q9BUB5 1-424 isoform Q9BUB5-2 T344D): as above

For `CCN(C(=O)OC(C)(C)C)c1nccc2oc(-c3cnc4ccc(OC[C@H](C)N)nn34)cc12` [Example 39, tert-Butyl[2-(6-{[(2S)-2-aminopropyl]oxy}imidazo[1,2-b]pyridazin-3-yl)-furo[3,2-c]pyridin-4-yl]ethylcarbamate], the IC50 was 250 nM against human full-lengt MKNK1 and 593 nM against human full-length MKNK1.
The like results for `COc1nccc2oc(-c3cnc4ccc(O[C@H]5CCC[C@@H]5N)nn34)cc12` [Example 31, (1S,2S)-2-{[3-(4-Methoxyfuro[3,2-c]pyridin-2-yl)imidazo[1,2-b]pyridazin-6-yl]-oxy}cyclopentanamine] were, in that order, 13 nM and 28 nM.
The like results for `CC(C)Oc1nccc2oc(-c3cnc4ccc(O[C@H]5C[C@H](N)C5)nn34)cc12` [Example 37, trans-3-({3-[4-(Propan-2-yloxy)furo[3,2-c]pyridin-2-yl]imidazo[1,2-b]pyridazin-6-yl}oxy)cyclobutanamine] were, in that order, 7 nM and 17 nM.
The matching figures for `COc1nccc2oc(-c3cnc4ccc(OC[C@@H](C)N)nn34)cc12` [Example 3, (2R)-1-{[3-(4-Methoxyfuro[3,2-c]pyridin-2-yl)imidazo[1,2-b]pyridazin-6-yl]-oxy}propan-2-amine]: 11 nM and 27 nM.
Consider `COc1nccc2oc(-c3cnc4ccc(OC[C@H](N)COCc5ccccc5)nn34)cc12` [Example 11, (2R)-1-(Benzyloxy)-3-{[3-(4-methoxyfuro[3,2-c]pyridin-2-yl)imidazo[1,2-b]-pyridazin-6-yl]oxy}propan-2-amine], for which the IC50 was 17 nM against human full-lengt MKNK1 and 59 nM against human full-length MKNK1.
Consider `COc1nccc2oc(-c3cnc4ccc(O[C@@H]5CC[C@H](N)C5)nn34)cc12` [Example 18, (1S,3R)-3-{[3-(4-Methoxyfuro[3,2-c]pyridin-2-yl)imidazo[1,2-b]pyridazin-6-yl]-oxy}cyclopentanamine], for which the half-inhibitory concentration (IC50) against human full-lengt MKNK1 turned out to be 17 nM; against human full-length MKNK1, 43 nM.
The matching figures for `COc1nccc2oc(-c3cnc4ccc(O[C@H](C)CN)nn34)cc12` [Example 6, (2R)-2-{[3-(4-Methoxyfuro[3,2-c]pyridin-2-yl)imidazo[1,2-b]pyridazin-6-yl]-oxy}propan-1-amine]: 23 nM and 37 nM.
With `COc1nccc2oc(-c3cnc4ccc(OC[C@H](N)CO)nn34)cc12` [Example 15, (2R)-2-Amino-3-{[3-(4-methoxyfuro[3,2-c]pyridin-2-yl)imidazo[1,2-b]pyridazin-6-yl]oxy}propan-1-C1], the IC50 on human full-lengt MKNK1 came out at 12 nM; against human full-length MKNK1, 31 nM.
Take `COc1nccc2oc(-c3cnc4ccc(OC[C@H](C)N)nn34)cc12` [Example 5, (2S)-1-{[3-(4-Methoxyfuro[3,2-c]pyridin-2-yl)imidazo[1,2-b]pyridazin-6-yl]-oxy}propan-2-amine]: the results for the IC50 against human full-lengt MKNK1 and against human full-length MKNK1 were 21 nM and 65 nM, respectively.
The matching figures for `CCOc1nccc2oc(-c3cnc4ccc(OC[C@@H](C)N)nn34)cc12` [Example 38, (2R)-1-{[3-(4-Ethoxyfuro[3,2-c]pyridin-2-yl)imidazo[1,2-b]pyridazin-6-yl]oxy}-propan-2-amine]: 8 nM and 23 nM.
In the case of `C[C@@H](N)COc1ccc2ncc(-c3cc4cnccc4o3)n2n1` [Example 26, (2R)-1-{[3-(Furo[3,2-c]pyridin-2-yl)imidazo[1,2-b]pyridazin-6-yl]oxy}propan-2-amine], the figures for the IC50 against human full-lengt MKNK1 and against human full-length MKNK1 were 100 nM and 216 nM, respectively.
Take `N[C@@H](COc1ccc2ncc(-c3cc4cnccc4o3)n2n1)c1ccccc1` [Example 7, (1R)-2-{[3-(Furo[3,2-c]pyridin-2-yl)imidazo[1,2-b]pyridazin-6-yl]oxy}-1-phenylethanamine]: the concentration for half-maximal inhibition (IC50) on human full-lengt MKNK1 came to 25 nM; against human full-length MKNK1 it was 91 nM.
The like results for `COc1nccc2oc(-c3cnc4ccc(OCC(C)(C)N)nn34)cc12` [Example 22, 1-{[3-(4-Methoxyfuro[3,2-c]pyridin-2-yl)imidazo[1,2-b]pyridazin-6-yl]oxy}-2-methylpropan-2-amine] were, in that order, 14 nM and 79 nM.
The like results for `N[C@H]1C[C@H](Oc2ccc3ncc(-c4cc5ncccc5o4)n3n2)C1` [Example 28, trans-3-{[3-(Furo[3,2-b]pyridin-2-yl)imidazo[1,2-b]pyridazin-6-yl]oxy}cyclobutanamine] were, in that order, 7 nM and 13 nM.
The like results for `COc1nccc2oc(-c3cnc4ccc(O[C@H]5CC[C@H](N)CC5)nn34)cc12` [Example 21, trans-4-{[3-(4-Methoxyfuro[3,2-c]pyridin-2-yl)imidazo[1,2-b]pyridazin-6-yl]-oxy}cyclohexanamine salt with formic acid] were, in that order, 10 nM and 31 nM.
On to `C[C@H](N)COc1ccc2ncc(-c3cc4c(OC5CCC5)nccc4o3)n2n1` [Example 41, (2S)-1-({3-[4-(Cyclobutyloxy)furo[3,2-c]pyridin-2-yl]imidazo[1,2-b]pyridazin-6-yl}oxy)propan-2-amine], for which the midpoint of inhibition against human full-length MKNK1, the IC50, lay at 19 nM.
On the same count and under the same terms, the same measure for `C[C@@H](N)COc1ccc2ncc(-c3cc4c(OC5CCC5)nccc4o3)n2n1` [Example 42, (2R)-1-({3-[4-(Cyclobutyloxy)furo[3,2-c]pyridin-2-yl]imidazo[1,2-b]pyridazin-6-yl}oxy)propan-2-amine]: 26 nM.
